Where “and” joins values, the source holds several entries; their conditions need not be identical. Equal values may be shown once. Entries after “also recorded” stand apart in the source; their conditions may differ. Read-outs that look alike come from different tables or passages of the source. Residues, ends and D or L forms follow the SMILES beside them.
Columns and labels:
[1] = tested on: rat cortical neurons; assay: Penetration of neuronal membranes (confocal microscopy, transmission electron microscopy); format: cell-based; details: 5 μM, 24 hours, FITC-labeled; listed as Helix-A peptide
Experimental: FTIR spectra of Helix-A nano. The gray line highlights the Amide region typical of peptide components. c. […] Representative images obtained by transmission electron microscopy showing unmodified MSN and Helix-A nano in intact and open lysosomes, respectively. Bar=500 nm.
Primary cortical neurons: Cortical neuronal cultures were prepared from the cortex of embryonic (E17-18) Sprague Dawley rats (Charles River, Mass.). Cells were seeded onto poly-L-lysine pre-coated plates in Neurobasal Medium containing 2% B27 supplement, […] glutamate, 0.5 mM L-glutamine, and 1% antibiotic-antimycotic solution (INVITROGEN®, Carlsbad, Calif.). Cultures were grown at 37° C. in 5% CO2/95% air for 7 days. Cultures contained ˜5% of non-neuronal cells. […]
Immunocytochemistry of primary neurons: Primary cortical neurons were maintained on glass coverslips for 7 days and fixed in 4% paraformaldehyde/phosphate buffer with 4% sucrose for 20 minutes at room temperature (RT). […] Coverslips were washed with PBS-T and correspondent fluorescence-conjugated secondary antibody (1:2000; INVITROGEN®, CA) were applied for 1 hour at RT. […] Image scale was calibrated and length of MAP-2 positive processes was measured in 10 neurons per field using ImageJ.

[2] = target: gp120IIIB (Human immunodeficiency virus type 1 group M subtype B, UniProt P04578); details: dot blot, 2 μg peptide spotted, 5 μg gp120IIIB
Experimental: Dot blot analysis: CTTs or Helix-A and -B peptides (2 μg each) were spotted on a nitrocellulose membrane and allowed to dry. The membrane was then incubated in blocking buffer (5% BSA in TBST [[…] NaCl, 20 mM Tris-base, pH 7.5, 0.05% TWEEN® 20]) for 2 hours followed by incubation with a solution composed of 5 μg recombinant gp120 (for binding to CTTs) or 5 μg recombinant TUBB3 (for Helix-A and -B) in 20 mL of TBST for 2 hours. The membranes were washed and then incubated with a mouse anti-gp120 antibody (1:1000; Immunodiagnostics, Inc.) or mouse anti-TUBB3 antibody (1:5000; Covance, N.J.) in TBST for 2 hours. Membranes were washed and incubated in goat anti-mouse HP-conjugated secondary antibody (1:20,000; Jackson ImmunoResearch Laboratories, Inc., PA). Visualization of the bands was then accomplished by the addition of PIERCE® SUPERSIGNAL™ West Pico-Stable Peroxidase Solution and Luminol/Enhancer Solution (Pierce Biotechnology, Inc., Rockford, Ill.).
Several CTTs (see Table 1) synthesized by […]® were used. Peptides (2 μg each) were spotted on a nitrocellulose membrane and incubated with a solution composed of 5 μg of gp120IIIB (Immunodiagnostics) in 20 mL of TBS-TWEEN® 2 hours at RT, followed by incubation with a specific primary antibody (Immunodiagnostics, +4° C., ON). Following incubation with a corresponding HRP-conjugated secondary antibody 1 hour at RT, the immunocomplexes were visualized with chemiluminescence.

[3] = target: T1, recombinant TUBB3 (Homo sapiens, UniProt Q13509); assay: SPR (BIACORE T200) binding to immobilized TUBB3; details: for SPR response (2-1) RU, Fc2: Tubulin β-3 1092 RU: 60 sec injection; for Kd: Ligand: TUBB3
T1 construct: purchased MyBioSource, San Diego, Calif
T1 sequence (Q13509 whole entry): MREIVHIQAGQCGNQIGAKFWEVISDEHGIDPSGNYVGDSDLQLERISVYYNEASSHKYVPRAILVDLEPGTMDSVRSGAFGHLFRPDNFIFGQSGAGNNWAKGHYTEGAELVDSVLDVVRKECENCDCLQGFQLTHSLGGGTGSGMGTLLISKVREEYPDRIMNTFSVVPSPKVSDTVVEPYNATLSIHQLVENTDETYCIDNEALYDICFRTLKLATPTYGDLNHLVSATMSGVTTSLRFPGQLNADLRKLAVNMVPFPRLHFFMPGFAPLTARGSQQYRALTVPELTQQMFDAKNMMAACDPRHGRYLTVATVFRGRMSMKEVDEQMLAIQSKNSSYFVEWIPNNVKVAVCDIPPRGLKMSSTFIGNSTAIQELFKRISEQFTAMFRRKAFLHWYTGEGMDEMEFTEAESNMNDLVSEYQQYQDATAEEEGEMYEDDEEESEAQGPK
Experimental: (§1) Surface plasmon resonance (SPR). BIACORE® T200™ was used to determine the kinetic parameters for the binding of recombinant TUBB3, tubulin dimer, and assembled microtubules (ligands) to the various isoforms of gp120 or related peptides (analytes). Recombinant TUBB3, tubulin dimer, and assembled MTs were covalently attached to different flow cells of a carboxymethyldextran (CM5) sensor chip by amine coupling. The chip surface was activated for 720 sec at 10 μL/min with of 1:1 mixture of 0.1 M N-Hydroxysuccinimide (NHS) and 0.5 M 1-Ethyl-3-(-3-dimethylaminopropyl)-carbodiimide hydrochloride (EDC). […] After ligand capture, the surfaces were deactivated by injecting 1 M ethanolamine for 720 sec at 10 μL/min. HBS-P (10 mM HEPES, pH7.4, 150 mM NaCl, 0.05% P-20) with 2 mM MgCl2 used as the running buffer. Flow cell 1 on each chip was left empty and used for reference surface. […] Kinetic studies were performed by injecting different concentrations of the analytes in triplicate. The chip surface was regenerated by with 10 mM glycine pH 1.5 injected for 30 sec at a flow rate of 100 μL/min. Each sample was injected for 60 sec (contact time) followed by a dissociation time of 300 sec at a flow rate of 100 μL/min. Data was analyzed with BIACORE® T200™ Evaluation Software (version 1) to determine the equilibrium dissociation constant (KD) from a 1:1 binding model. Binding studies with peptides Helix A and Helix B were done in the same way as described above. Kinetic studies were performed by injecting different concentrations (20 μM, 10 μM, 5 μM, 2.5 μM, 1.25 μM and 0.625 μM) of Helix A and Helix B. Competition experiments with Helix A and Helix B were performed by mixing 100 nM gp120 isoforms with 10 μM of each peptide and injecting over the sensorchip surface.
(§2) Recombinant TUBB3, tubulin dimer, and assembled MTs from bovine brains were immobilized on a BIACORE® CM5 chip by amine coupling. Different concentrations of gp120s (from 3.13 to 100 nM) were injected over the surface in triplicates in each experiment. The kinetics of interaction was analyzed using a BIACORE® T200™ instrument. BiaEvaluation software was used to calculate binding affinities based on 1:1 binding model.

[4] = tested on: tubulin dimer; assay: SPR (BIACORE T200) binding to immobilized tubulin dimer; parameters: species or system Porcine; details: 1 uM peptide alone; 60 sec injection
Experimental: as §1
as §2, with “BiaEvaluation software was used to calculate binding affinities based on 1:1 binding model.” left out

[5] = tested on: assembled MTs; assay: SPR (BIACORE T200) binding to immobilized assembled microtubules; parameters: species or system Porcine; details: 1 uM peptide alone; 60 sec injection
Experimental: Surface plasmon resonance (SPR). BIACORE® T200™ was used to determine the kinetic parameters for the binding of recombinant TUBB3, tubulin dimer, and assembled microtubules (ligands) to the various isoforms of gp120 or related peptides (analytes). Recombinant TUBB3, tubulin dimer, and assembled MTs were covalently attached to different flow cells of a carboxymethyldextran (CM5) sensor chip by amine coupling. The chip surface was activated for 720 sec at 10 μL/min with of 1:1 mixture of 0.1 M N-Hydroxysuccinimide (NHS) and 0.5 M 1-Ethyl-3-(-3-dimethylaminopropyl)-carbodiimide hydrochloride (EDC). […] After ligand capture, the surfaces were deactivated by injecting 1 M ethanolamine for 720 sec at 10 μL/min. HBS-P (10 mM HEPES, pH7.4, 150 mM NaCl, 0.05% P-20) with 2 mM MgCl2 used as the running buffer. Flow cell 1 on each chip was left empty and used for reference surface. TUBB3 (1040 RU), tubulin dimer (2086 RU), and assembled MTs (990 RU) were captured on the remaining 3 flow cells. Kinetic studies were performed by injecting different concentrations of the analytes in triplicate. The chip surface was regenerated by with 10 mM glycine pH 1.5 injected for 30 sec at a flow rate of 100 μL/min. Each sample was injected for 60 sec (contact time) followed by a dissociation time of 300 sec at a flow rate of 100 μL/min. Data was analyzed with BIACORE® T200™ Evaluation Software (version 1) to determine the equilibrium dissociation constant (KD) from a 1:1 binding model. Binding studies with peptides Helix A and Helix B were done in the same way as described above. Kinetic studies were performed by injecting different concentrations (20 μM, 10 μM, 5 μM, 2.5 μM, 1.25 μM and 0.625 μM) of Helix A and Helix B. Competition experiments with Helix A and Helix B were performed by mixing 100 nM gp120 isoforms with 10 μM of each peptide and injecting over the sensorchip surface.
Recombinant TUBB3, tubulin dimer, and assembled MTs from bovine brains were immobilized on a BIACORE® CM5 chip by amine coupling. […] The kinetics of interaction was analyzed using a BIACORE® T200™ instrument. […]

[6] = target: T2, gp120 binding to Tubulin β-3 (Homo sapiens, UniProt Q13509); assay: SPR competition: gp120 premixed with Helix peptide injected over TUBB3; details: 60 sec injection
T2 construct: purchased MyBioSource (TUBB3); Immunodiagnostics Inc, Woburn, Mass; (gp120s)
T2 sequence (Q13509 whole entry): as above
Description: (§3) BIACORE® T200™ was used to determine the kinetic parameters for the binding of recombinant TUBB3, tubulin dimer, and assembled MTs to gp120s in the absence and presence of Helix-A peptide. […] Representative data are from one of three independent experiments.
(§4) Surface plasmon resonance (SPR). BIACORE® T200™ was used to determine the kinetic parameters for the binding of recombinant TUBB3, tubulin dimer, and assembled microtubules (ligands) to the various isoforms of gp120 or related peptides (analytes). Recombinant TUBB3, tubulin dimer, and assembled MTs were covalently attached to different flow cells of a carboxymethyldextran (CM5) sensor chip by amine coupling. The chip surface was activated for 720 sec at 10 μL/min with of 1:1 mixture of 0.1 M N-Hydroxysuccinimide (NHS) and 0.5 M 1-Ethyl-3-(-3-dimethylaminopropyl)-carbodiimide hydrochloride (EDC). […] After ligand capture, the surfaces were deactivated by injecting 1 M ethanolamine for 720 sec at 10 μL/min. HBS-P (10 mM HEPES, pH7.4, 150 mM NaCl, 0.05% P-20) with 2 mM MgCl2 used as the running buffer. Flow cell 1 on each chip was left empty and used for reference surface. TUBB3 (1040 RU), tubulin dimer (2086 RU), and assembled MTs (990 RU) were captured on the remaining 3 flow cells. […] Data was analyzed with BIACORE® T200™ Evaluation Software (version 1) to determine the equilibrium dissociation constant (KD) from a 1:1 binding model. […]

[7] = tested on: gp120 binding to tubulin dimer; assay: SPR competition: gp120 premixed with Helix peptide injected over tubulin dimer; parameters: species or system Porcine; details: 60 sec injection
Experimental: BIACORE® T200™ was used to determine the kinetic parameters for the binding of recombinant TUBB3, tubulin dimer, and assembled MTs to gp120s in the absence and presence of Helix-A peptide. Gp120s (100 nM) were injected over the surface alone or as a premix with Helix-A peptides (10 μM). Representative data are from one of three independent experiments.
as §4, with “surface.” for “surface. TUBB3 (1040 RU), tubulin dimer (2086 RU), and assembled MTs (990 RU) were captured on the remaining 3 flow cells.”

[8] = tested on: gp120 binding to microtubules; assay: SPR competition: gp120 premixed with Helix peptide injected over microtubules; parameters: species or system Porcine; details: 60 sec injection
Description: as §3, §4

[9] = 100 nM GP120IIIB + 1 uM peptide
[10] = 100 nM GP120IIIB + 10 uM peptide

CC[C@H](C)[C@H](NC(=O)[C@H](CC(=O)O)NC(=O)[C@H](CCC(=O)O)NC(=O)[C@H](Cc1c[nH]cn1)NC(=O)[C@H](CCSC)NC(=O)[C@H](CCC(N)=O)NC(=O)[C@H](CCC(=O)O)NC(=O)[C@@H](NC(=O)[C@H](CCSC)NC(=O)[C@H](CC(=O)O)NC(=O)[C@@H](N)CC(N)=O)C(C)C)C(=O)N[C@H](C(=O)N[C@@H](CO)C(=O)N[C@@H](CC(C)C)C(=O)N[C@@H](Cc1c[nH]c2ccccc12)C(=O)N[C@@H](CC(=O)O)C(=O)N[C@@H](CCC(N)=O)C(=O)N[C@@H](CO)C(=O)N[C@@H](CC(C)C)C(=O)N[C@@H](CCCCN)C(=O)O)[C@@H](C)CC [Helix A] (H-NDMVEQMHEDIISLWDQSLK-OH; N-terminus and C-terminus assumed)
penetration of neuronal cell membrane [1]: could not penetrate; also recorded: not cell-membrane-penetrable

EDDEEESEA [SEQ ID NO: 13]
Binding to gp120 ([2]; listed as tubulin β-3 (TUBB3)): potential binding partners

EGEGEEEGE [SEQ ID NO: 5]
Binding to gp120 [2]: YES
Binding to gp120 ([2]; listed as tubulin-α1A/1B Δ2): potential binding partners

RAKWNNTLKQIASK (listed as Homo sapiens) [Helix B]
SPR response (2-1) RU, Fc2: Tubulin β-3 1092 RU ([3]; 10 uM peptide alone): 1.1 RU and 1.2 RU
SPR response (3-1) RU, Fc3: Tubulin Dimer 1900 RU [4]: 0.4 RU and 0.5 RU
SPR response (4-1) RU, Fc4: Microtubules 970 RU [5]: N/B
SPR response (2-1) RU, Fc2: Tubulin β-3 1092 RU [6, 9]: 33 RU
SPR response (2-1) RU, Fc2: Tubulin β-3 1092 RU [6, 10]: 34 RU and 32 RU
SPR response (3-1) RU, Fc3: Tubulin Dimer 1900 RU [7, 9]: 18.5 RU
SPR response (3-1) RU, Fc3: Tubulin Dimer 1900 RU [7, 10]: 20 RU and 18 RU
SPR response (4-1) RU, Fc4: Microtubules 970 RU [8, 9]: 16.5 RU
SPR response (4-1) RU, Fc4: Microtubules 970 RU [8, 10]: 19 RU and 20 RU

gp120MN: HIV envelope protein gp120, strain MN, purchased from Immunodiagnostics
SPR response (2-1) RU, Fc2: Tubulin β-3 1092 RU ([3]; 100 nM gp120 alone): 9 RU and 8.8 RU
Kd ([3]; mean of two independent experiments, read-out: Mean KD): 740 nM
Kd ([3]; single experiment, gp120 3.13 to 100 nM, 1:1 binding model, read-out: KD): 579 nM and 901 nM
